Reference: PubChem BioAssay (NCI)
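A five-concentration, 48-hour dose response in 96-well plates underlies each endpoint, interpolated linearly between surrounding concentrations. GI50 is the concentration that inhibits growth by half. TGI: concentration producing complete growth inhibition.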

Tests used:
Assay in all cases: growth of human tumour cells (NCI), 48 h
786-0 renal = system: 786-0 renal
A498 renal = system: A498 renal
A549 NSCLC = system: A549 NSCLC
ACHN renal = system: ACHN renal
BT-549 breast = system: BT-549 breast
CAKI-1 renal = system: CAKI-1 renal
CCRF-CEM leukemia = system: CCRF-CEM leukemia
COLO 205 colon = system: COLO 205 colon
DU-145 prostate = system: DU-145 prostate
HCC-2998 colon = system: HCC-2998 colon
HCT-116 colon = system: HCT-116 colon
HCT-15 colon = system: HCT-15 colon
HOP-62 NSCLC = system: HOP-62 NSCLC
HOP-92 NSCLC = system: HOP-92 NSCLC
HS 578T breast = system: HS 578T breast
HT29 colon = system: HT29 colon
IGROV1 ovarian = system: IGROV1 ovarian
K-562 leukemia = system: K-562 leukemia
KM12 colon = system: KM12 colon
LOX IMVI melanoma = system: LOX IMVI melanoma
M14 melanoma = system: M14 melanoma
MALME-3M melanoma = system: MALME-3M melanoma
MCF7 breast = system: MCF7 breast
MDA-MB-231 breast = system: MDA-MB-231 breast
MDA-MB-435 = system: MDA-MB-435
MOLT-4 leukemia = system: MOLT-4 leukemia
NCI-H226 lung = system: NCI-H226 lung
NCI-H23 lung = system: NCI-H23 lung
NCI-H460 lung = system: NCI-H460 lung
NCI-H522 lung = system: NCI-H522 lung
NCI/ADR-RES ovarian = system: NCI/ADR-RES ovarian
OVCAR-4 ovarian = system: OVCAR-4 ovarian
OVCAR-5 ovarian = system: OVCAR-5 ovarian
OVCAR-8 ovarian = system: OVCAR-8 ovarian
PC-3 prostate = system: PC-3 prostate
RPMI-8226 leukemia = system: RPMI-8226 leukemia
RXF 393 renal = system: RXF 393 renal
SF-268 CNS = system: SF-268 CNS
SF-295 CNS = system: SF-295 CNS
SF-539 CNS = system: SF-539 CNS
SK-MEL-2 melanoma = system: SK-MEL-2 melanoma
SK-MEL-28 melanoma = system: SK-MEL-28 melanoma
SK-MEL-5 melanoma = system: SK-MEL-5 melanoma
SK-OV-3 ovarian = system: SK-OV-3 ovarian
SN12C renal = system: SN12C renal
SNB-19 CNS = system: SNB-19 CNS
SNB-75 CNS = system: SNB-75 CNS
SR leukemia = system: SR leukemia
SW-620 colon = system: SW-620 colon
T-47D breast = system: T-47D breast
TK-10 renal = system: TK-10 renal
U251 CNS = system: U251 CNS
UACC-257 melanoma = system: UACC-257 melanoma
UACC-62 melanoma = system: UACC-62 melanoma
UO-31 renal = system: UO-31 renal

## CCCc1ccc(S(=O)(=O)N[C@H]2CC[C@H]3[C@@H]4CCc5cc(O)ccc5[C@H]4CC[C@]23C)cc1
786-0 renal
  GI50: 3.02 µM
  TGI: 9.16 µM
A498 renal
  GI50: 1.78 µM
  TGI: 5.45 µM
A549 NSCLC
  GI50: 3.22 µM
  TGI: 12.8 µM
ACHN renal
  GI50: 2.57 µM
  TGI: 8.06 µM
BT-549 breast
  GI50: 2.47 µM
  TGI: 5.89 µM
CAKI-1 renal
  GI50: 3.45 µM
  TGI: 11.9 µM
CCRF-CEM leukemia
  GI50: 2.72 µM
  TGI: 12 µM
COLO 205 colon
  GI50: 1.84 µM
  TGI: 3.28 µM
DU-145 prostate
  GI50: 4.04 µM
  TGI: 14 µM
HCC-2998 colon
  GI50: 4 µM
  TGI: 13.7 µM
HCT-116 colon
  GI50: 1.78 µM
  TGI: 3.27 µM
HCT-15 colon
  GI50: 2.26 µM
  TGI: 6.45 µM
HOP-62 NSCLC
  GI50: 4.65 µM
  TGI: 15.8 µM
HOP-92 NSCLC
  GI50: 1.91 µM
  TGI: 5.65 µM
HS 578T breast
  GI50: 3.33 µM
  TGI: 12.9 µM
HT29 colon
  GI50: 3.19 µM
  TGI: 10.2 µM
IGROV1 ovarian
  GI50: 3.76 µM
  TGI: 14.3 µM
K-562 leukemia
  GI50: 3.06 µM
  TGI: 12 µM
KM12 colon
  GI50: 2.68 µM
  TGI: 7.81 µM
LOX IMVI melanoma
  GI50: 1.72 µM
  TGI: 3.17 µM
M14 melanoma
  GI50: 3.21 µM
  TGI: 10.3 µM
MALME-3M melanoma
  GI50: 2.82 µM
  TGI: 8.07 µM
MCF7 breast
  GI50: 2.66 µM
  TGI: 7.29 µM
MDA-MB-231 breast
  GI50: 2.29 µM
  TGI: 6.21 µM
MDA-MB-435
  GI50: 3.13 µM
  TGI: 11.1 µM
MOLT-4 leukemia
  GI50: 2.36 µM
  TGI: 9.18 µM
NCI-H226 lung
  GI50: 1.57 µM
  TGI: 3.15 µM
NCI-H23 lung
  GI50: 3.31 µM
  TGI: 14.6 µM
NCI-H460 lung
  GI50: 2.54 µM
  TGI: 6.41 µM
NCI-H522 lung
  GI50: 2.32 µM
  TGI: 9.09 µM
NCI/ADR-RES ovarian
  GI50: 2.75 µM
  TGI: 10.6 µM
OVCAR-4 ovarian
  GI50: 2.23 µM
  TGI: 9.57 µM
OVCAR-5 ovarian
  GI50: 2.06 µM
  TGI: 4.44 µM
OVCAR-8 ovarian
  GI50: 3.29 µM
  TGI: 13.1 µM
PC-3 prostate
  GI50: 2.52 µM
  TGI: 11.7 µM
RPMI-8226 leukemia
  GI50: 2.9 µM
  TGI: 10 µM
RXF 393 renal
  GI50: 1.67 µM
  TGI: 4.42 µM
SF-268 CNS
  GI50: 3.44 µM
  TGI: 13.4 µM
SF-295 CNS
  GI50: 3.06 µM
  TGI: 10.9 µM
SF-539 CNS
  GI50: 2.12 µM
  TGI: 4.46 µM
SK-MEL-2 melanoma
  GI50: 2.72 µM
  TGI: 7.12 µM
SK-MEL-28 melanoma
  GI50: 2.45 µM
  TGI: 6.33 µM
SK-MEL-5 melanoma
  GI50: 1.63 µM
  TGI: 3.01 µM
SK-OV-3 ovarian
  GI50: 3.65 µM
  TGI: 12.4 µM
SN12C renal
  GI50: 1.75 µM
  TGI: 3.44 µM
SNB-19 CNS
  GI50: 4.2 µM
  TGI: 15.9 µM
SNB-75 CNS
  GI50: 2.23 µM
  TGI: 9.98 µM
SR leukemia
  GI50: 2.53 µM
  TGI: 8.06 µM
SW-620 colon
  GI50: 3.6 µM
  TGI: 14.2 µM
T-47D breast
  GI50: 3.54 µM
  TGI: 10.8 µM
TK-10 renal
  GI50: 3.8 µM
  TGI: 13.7 µM
U251 CNS
  GI50: 1.95 µM
  TGI: 4.25 µM
UACC-257 melanoma
  GI50: 3.83 µM
  TGI: 15.7 µM
UACC-62 melanoma
  GI50: 1.92 µM
  TGI: 4.37 µM
UO-31 renal
  GI50: 2.23 µM
  TGI: 8.78 µM
